Data: PMC10879502, “Linking ATP and allosteric sites to achieve superadditive binding with bivalent EGFR kinase inhibitors” (Communications Chemistry, 2024)

What was measured:
AKT3 = AKT3 (Homo sapiens, UniProt Q9Y243); assay: KINOMEscan; type: binding; conditions: 1 μM
[1] = molecular target: T1, EGFR WT, cytoplasmic domain (669–1210) (Homo sapiens, UniProt P00533); assay: Time-dependent kinase inhibition assay (Sox-based substrate); type: biochemical; conditions: enzyme 2.0 nM, 1 mM ATP
T1 construct: EGFR WT, cytoplasmic domain (669–1210), GST-tagged, Carna; purchased Carna 08-115
Method: (§1) Biochemical assays were performed with commercially available EGFR WT, cytoplasmic domain (669–1210), GST-tagged, Carna (Cat#/Lot#: 08-115/21CBS-0127H), EGFR [L858R], cytoplasmic domain (668-end), GST-tagged, SignalChem (Cat#/Lot#: E10-122BG/D2411-4), EGFR [T790M/L858R] cytoplasmic domain (669–1210), GST-tagged, Carna (Cat#/Lot#: 08-510/12CBS-0765M). […] BSA was not included in this experiment to prevent interference with irreversible inhibitor characterization via off-target binding. All reactions were run for 240 min at 30 °C. Time-dependent fluorescence from the Sox-based substrate was monitored in PerkinElmer ProxiPlate-384 Plus, white shallow well microplates (Cat. #6008280) Biotek Synergy Neo 2 microplate reader with excitation (360 nm) and emission (485 nm) wavelengths. 4 was dosed between 0 and 10 µM in 24-point curves with 1.5-fold dilutions. Fluorescence, determined with identical reactions but lacking purified enzyme or crude cell lysate was subtracted from the total fluorescence signal for each time point, with both determined in duplicate, to obtain corrected relative fluorescence units (RFU). Corrected RFU values then were plotted vs. time and the reaction velocity for the first ~40 min (initial reaction rates) was determined from the slope using GraphPad Prism (La Jolla, CA) with units of RFU/min.

[2] = molecular target: T2, EGFR [L858R], cytoplasmic domain (668-end) (Homo sapiens, UniProt P00533, L858R); assay: as above; type: biochemical; conditions: LR, enzyme 1.0 nM, 1 mM ATP
T2 construct: EGFR [L858R], cytoplasmic domain (668-end), GST-tagged, SignalChem; purchased SignalChem E10-122BG
Method: as §1

CSNK1G2 = molecular target: T3, CSNK1G2 (Homo sapiens, UniProt P78368); assay: KINOMEscan; type: binding; conditions: 1 μM
T3 construct: purchased Eurofins DiscoverX Corporation

CSNK1G1 = molecular target: T4, CSNK1G1 (Homo sapiens, UniProt Q9HCP0); assay: KINOMEscan; type: binding; conditions: 1 μM
T4 construct: purchased Eurofins DiscoverX Corporation

RIOK3 = RIOK3 (Homo sapiens, UniProt O14730); assay: KINOMEscan; type: binding; conditions: 1 μM
MEK3 = molecular target: T5, MEK3 (Homo sapiens, UniProt P46734); assay: KINOMEscan; type: binding; conditions: 1 μM
T5 construct: purchased Eurofins DiscoverX Corporation

ULK2 = ULK2 (Homo sapiens, UniProt Q8IYT8); assay: KINOMEscan; type: binding; conditions: 1 μM
FER = FER (Homo sapiens, UniProt P16591); assay: KINOMEscan; type: binding; conditions: 1 μM
CDKL5 = CDKL5 (Homo sapiens, UniProt O76039); assay: KINOMEscan; type: binding; conditions: 1 μM
KIT(D816H) = molecular target: T6, KIT(D816H) (Homo sapiens, UniProt P10721, D816H); assay: KINOMEscan; type: binding; conditions: 1 μM
T6 construct: purchased Eurofins DiscoverX (KINOMEscan)

CSF1R = CSF1R (Homo sapiens, UniProt P07333); assay: KINOMEscan; type: binding; conditions: 1 μM
PCTK3 = PCTK3 (Homo sapiens, UniProt Q07002); assay: KINOMEscan; type: binding; conditions: 1 μM
EPHA4 = EPHA4 (Homo sapiens, UniProt P54764); assay: KINOMEscan; type: binding; conditions: 1 μM
MRCKB = molecular target: T7, MRCKB (Homo sapiens, UniProt Q9Y5S2); assay: KINOMEscan; type: binding; conditions: 1 μM
T7 construct: purchased Eurofins DiscoverX Corporation

LIMK1 = molecular target: T8, LIMK1 (Homo sapiens, UniProt P53667); assay: KINOMEscan; type: binding; conditions: 1 μM
T8 construct: purchased Eurofins DiscoverX Corporation

GRK3 = molecular target: T9, GRK3 (Homo sapiens, UniProt P35626); assay: KINOMEscan; type: binding; conditions: 1 μM
T9 construct: purchased Eurofins DiscoverX Corporation

EGFR(L747-T751del+Sins) = assay: KINOMEscan; type: binding; conditions: 1 μM
MARK1 = molecular target: T10, MARK1 (Homo sapiens, UniProt Q9P0L2); assay: KINOMEscan; type: binding; conditions: 1 μM
T10 construct: purchased Eurofins DiscoverX Corporation

GSK3B = molecular target: T11, GSK3B (Homo sapiens, UniProt P49841); assay: KINOMEscan; type: binding; conditions: 1 μM
T11 construct: purchased Eurofins DiscoverX Corporation

TAOK2 = molecular target: T12, TAOK2 (Homo sapiens, UniProt Q9UL54); assay: KINOMEscan; type: binding; conditions: 1 μM
T12 construct: purchased Eurofins DiscoverX Corporation

MUSK = molecular target: T13, MUSK (Homo sapiens, UniProt O15146); assay: KINOMEscan; type: binding; conditions: 1 μM
T13 construct: purchased Eurofins DiscoverX Corporation

NEK9 = NEK9 (Homo sapiens, UniProt Q8TD19); assay: KINOMEscan; type: binding; conditions: 1 μM
NDR1 = molecular target: T14, NDR1 (Homo sapiens, UniProt Q15208); assay: KINOMEscan; type: binding; conditions: 1 μM
T14 construct: purchased Eurofins DiscoverX Corporation

CDK9 = CDK9 (Homo sapiens, UniProt P50750); assay: KINOMEscan; type: binding; conditions: 1 μM
TIE2 = molecular target: T15, TIE2 (Homo sapiens, UniProt Q02763); assay: KINOMEscan; type: binding; conditions: 1 μM
T15 construct: purchased Eurofins DiscoverX Corporation

TAOK3 = molecular target: T16, TAOK3 (Homo sapiens, UniProt Q9H2K8); assay: KINOMEscan; type: binding; conditions: 1 μM
T16 construct: purchased Eurofins DiscoverX Corporation

LRRK2 = molecular target: T17, LRRK2 (Homo sapiens, UniProt Q5S007); assay: KINOMEscan; type: binding; conditions: 1 μM
T17 construct: purchased Eurofins DiscoverX Corporation

DYRK2 = molecular target: T18, DYRK2 (Homo sapiens, UniProt Q92630); assay: KINOMEscan; type: binding; conditions: 1 μM
T18 construct: purchased Eurofins DiscoverX Corporation

CDK8 = CDK8 (Homo sapiens, UniProt P49336); assay: KINOMEscan; type: binding; conditions: 1 μM
EPHA8 = EPHA8 (Homo sapiens, UniProt P29322); assay: KINOMEscan; type: binding; conditions: 1 μM
MEK2 = molecular target: T19, MEK2 (Homo sapiens, UniProt P36507); assay: KINOMEscan; type: binding; conditions: 1 μM
T19 construct: purchased Eurofins DiscoverX Corporation

FGR = FGR (Homo sapiens, UniProt P09769); assay: KINOMEscan; type: binding; conditions: 1 μM

T2 sequence (P00533 669-1210 L858R limits assumed): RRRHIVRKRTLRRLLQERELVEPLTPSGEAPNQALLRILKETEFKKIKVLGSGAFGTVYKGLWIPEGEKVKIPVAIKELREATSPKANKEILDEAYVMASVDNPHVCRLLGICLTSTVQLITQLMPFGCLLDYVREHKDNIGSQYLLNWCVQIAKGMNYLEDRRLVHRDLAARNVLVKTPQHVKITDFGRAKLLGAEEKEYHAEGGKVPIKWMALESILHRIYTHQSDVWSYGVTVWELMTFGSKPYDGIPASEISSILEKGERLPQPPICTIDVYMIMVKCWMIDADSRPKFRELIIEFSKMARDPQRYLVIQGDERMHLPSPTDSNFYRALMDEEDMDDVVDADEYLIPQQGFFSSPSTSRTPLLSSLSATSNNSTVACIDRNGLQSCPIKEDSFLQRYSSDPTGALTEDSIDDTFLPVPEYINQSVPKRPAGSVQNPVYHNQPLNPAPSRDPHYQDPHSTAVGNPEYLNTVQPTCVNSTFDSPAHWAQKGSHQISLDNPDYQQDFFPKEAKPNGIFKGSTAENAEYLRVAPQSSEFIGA
T1 sequence (P00533 669-1210): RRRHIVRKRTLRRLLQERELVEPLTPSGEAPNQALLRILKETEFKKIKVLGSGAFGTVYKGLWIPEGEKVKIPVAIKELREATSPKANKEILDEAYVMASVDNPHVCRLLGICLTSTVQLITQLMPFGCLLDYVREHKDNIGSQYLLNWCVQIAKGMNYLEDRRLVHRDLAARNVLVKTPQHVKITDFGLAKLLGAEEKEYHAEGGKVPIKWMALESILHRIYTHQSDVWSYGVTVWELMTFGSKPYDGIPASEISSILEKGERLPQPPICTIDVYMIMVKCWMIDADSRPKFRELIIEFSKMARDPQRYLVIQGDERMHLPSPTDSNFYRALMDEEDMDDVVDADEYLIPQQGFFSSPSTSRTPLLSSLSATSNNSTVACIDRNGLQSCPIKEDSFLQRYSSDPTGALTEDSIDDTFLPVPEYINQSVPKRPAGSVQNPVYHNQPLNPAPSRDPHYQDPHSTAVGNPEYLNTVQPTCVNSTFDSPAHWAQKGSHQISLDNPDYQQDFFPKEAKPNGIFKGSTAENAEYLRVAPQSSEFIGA
T4 sequence (Q9HCP0 whole entry): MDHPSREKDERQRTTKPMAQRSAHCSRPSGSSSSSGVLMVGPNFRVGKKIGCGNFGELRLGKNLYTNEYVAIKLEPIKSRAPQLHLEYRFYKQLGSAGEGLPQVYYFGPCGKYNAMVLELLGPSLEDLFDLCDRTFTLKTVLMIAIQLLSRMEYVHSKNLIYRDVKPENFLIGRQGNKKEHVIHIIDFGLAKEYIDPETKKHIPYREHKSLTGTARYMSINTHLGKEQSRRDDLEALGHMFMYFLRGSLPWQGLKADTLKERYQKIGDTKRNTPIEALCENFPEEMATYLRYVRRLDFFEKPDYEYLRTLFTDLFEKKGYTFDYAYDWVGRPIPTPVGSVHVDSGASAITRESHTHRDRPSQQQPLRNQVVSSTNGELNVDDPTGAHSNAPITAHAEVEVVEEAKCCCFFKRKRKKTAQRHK
T18 sequence (Q92630 whole entry): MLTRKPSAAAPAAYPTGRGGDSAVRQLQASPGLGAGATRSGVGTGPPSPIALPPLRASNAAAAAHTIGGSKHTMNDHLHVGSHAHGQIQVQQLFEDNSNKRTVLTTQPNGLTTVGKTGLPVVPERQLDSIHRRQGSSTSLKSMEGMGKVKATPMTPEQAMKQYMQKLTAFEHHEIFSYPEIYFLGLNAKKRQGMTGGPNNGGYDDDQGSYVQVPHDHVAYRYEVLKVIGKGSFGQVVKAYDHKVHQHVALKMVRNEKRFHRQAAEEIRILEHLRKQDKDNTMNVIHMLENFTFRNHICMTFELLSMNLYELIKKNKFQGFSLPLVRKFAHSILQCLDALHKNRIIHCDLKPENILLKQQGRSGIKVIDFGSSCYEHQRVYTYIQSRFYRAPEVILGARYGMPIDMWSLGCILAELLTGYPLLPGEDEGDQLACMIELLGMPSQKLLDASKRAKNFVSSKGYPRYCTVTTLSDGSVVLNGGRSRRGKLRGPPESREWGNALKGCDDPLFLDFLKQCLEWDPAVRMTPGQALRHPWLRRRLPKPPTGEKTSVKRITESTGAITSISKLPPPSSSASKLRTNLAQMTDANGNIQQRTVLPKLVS
Sequence of AKT3 (Q9Y243 whole entry, the tested form may be a part): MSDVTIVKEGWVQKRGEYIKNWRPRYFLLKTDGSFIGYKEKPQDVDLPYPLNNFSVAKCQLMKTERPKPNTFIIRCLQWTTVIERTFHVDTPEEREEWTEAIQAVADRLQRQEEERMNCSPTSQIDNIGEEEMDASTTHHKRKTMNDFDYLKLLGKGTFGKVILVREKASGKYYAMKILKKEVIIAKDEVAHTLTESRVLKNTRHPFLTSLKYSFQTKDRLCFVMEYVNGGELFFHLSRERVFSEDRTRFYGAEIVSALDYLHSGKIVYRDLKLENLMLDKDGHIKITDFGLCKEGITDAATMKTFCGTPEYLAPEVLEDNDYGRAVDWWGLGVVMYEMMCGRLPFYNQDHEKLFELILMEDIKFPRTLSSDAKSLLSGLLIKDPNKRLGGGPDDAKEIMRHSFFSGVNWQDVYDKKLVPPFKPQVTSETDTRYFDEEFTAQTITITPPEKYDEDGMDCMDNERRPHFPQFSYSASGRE
Sequence of CDK8 (P49336 whole entry): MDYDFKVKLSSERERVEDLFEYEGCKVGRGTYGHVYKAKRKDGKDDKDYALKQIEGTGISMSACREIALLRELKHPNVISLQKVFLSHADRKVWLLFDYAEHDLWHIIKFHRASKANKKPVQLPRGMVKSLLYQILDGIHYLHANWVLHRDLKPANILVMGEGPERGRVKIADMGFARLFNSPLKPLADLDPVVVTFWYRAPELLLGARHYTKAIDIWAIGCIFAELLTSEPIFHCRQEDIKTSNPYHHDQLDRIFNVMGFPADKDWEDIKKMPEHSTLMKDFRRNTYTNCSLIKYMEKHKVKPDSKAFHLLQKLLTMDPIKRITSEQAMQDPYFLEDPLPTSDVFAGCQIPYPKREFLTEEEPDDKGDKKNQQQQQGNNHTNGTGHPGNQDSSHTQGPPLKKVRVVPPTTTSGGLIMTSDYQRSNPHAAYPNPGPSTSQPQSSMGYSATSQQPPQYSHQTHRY
T14 sequence (Q15208 whole entry): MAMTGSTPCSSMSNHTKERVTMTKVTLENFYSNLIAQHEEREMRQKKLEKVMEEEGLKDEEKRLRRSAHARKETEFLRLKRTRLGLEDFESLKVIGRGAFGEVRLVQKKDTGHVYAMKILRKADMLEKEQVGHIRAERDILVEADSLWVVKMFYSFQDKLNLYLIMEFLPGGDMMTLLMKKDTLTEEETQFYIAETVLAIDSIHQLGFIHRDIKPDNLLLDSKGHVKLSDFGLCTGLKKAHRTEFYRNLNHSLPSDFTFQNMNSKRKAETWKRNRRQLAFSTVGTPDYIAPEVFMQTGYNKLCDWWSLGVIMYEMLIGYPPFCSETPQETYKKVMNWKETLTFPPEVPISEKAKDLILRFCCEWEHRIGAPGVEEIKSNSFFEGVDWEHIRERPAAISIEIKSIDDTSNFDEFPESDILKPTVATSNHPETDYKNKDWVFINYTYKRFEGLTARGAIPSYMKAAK
T13 sequence (O15146 24-869): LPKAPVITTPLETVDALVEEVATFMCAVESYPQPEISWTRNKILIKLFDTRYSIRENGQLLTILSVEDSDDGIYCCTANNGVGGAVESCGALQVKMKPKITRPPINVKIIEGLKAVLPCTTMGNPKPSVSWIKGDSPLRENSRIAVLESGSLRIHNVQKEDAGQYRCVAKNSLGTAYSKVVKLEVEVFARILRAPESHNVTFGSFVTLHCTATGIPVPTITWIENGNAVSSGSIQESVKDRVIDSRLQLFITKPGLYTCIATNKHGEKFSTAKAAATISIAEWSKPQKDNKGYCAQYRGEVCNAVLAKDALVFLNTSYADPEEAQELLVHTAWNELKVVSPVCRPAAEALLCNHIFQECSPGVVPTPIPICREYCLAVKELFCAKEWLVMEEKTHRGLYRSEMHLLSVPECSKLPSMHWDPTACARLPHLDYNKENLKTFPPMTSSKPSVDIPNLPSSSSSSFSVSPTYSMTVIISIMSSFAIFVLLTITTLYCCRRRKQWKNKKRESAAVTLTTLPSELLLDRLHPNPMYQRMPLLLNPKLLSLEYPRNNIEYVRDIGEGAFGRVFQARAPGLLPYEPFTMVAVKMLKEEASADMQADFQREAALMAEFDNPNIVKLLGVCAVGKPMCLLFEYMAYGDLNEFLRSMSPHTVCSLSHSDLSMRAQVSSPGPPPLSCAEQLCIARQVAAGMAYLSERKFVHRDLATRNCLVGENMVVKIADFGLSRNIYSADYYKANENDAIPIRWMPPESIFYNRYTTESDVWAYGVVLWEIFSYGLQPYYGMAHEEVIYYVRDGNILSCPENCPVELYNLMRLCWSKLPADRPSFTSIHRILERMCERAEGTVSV
T11 sequence (P49841 whole entry): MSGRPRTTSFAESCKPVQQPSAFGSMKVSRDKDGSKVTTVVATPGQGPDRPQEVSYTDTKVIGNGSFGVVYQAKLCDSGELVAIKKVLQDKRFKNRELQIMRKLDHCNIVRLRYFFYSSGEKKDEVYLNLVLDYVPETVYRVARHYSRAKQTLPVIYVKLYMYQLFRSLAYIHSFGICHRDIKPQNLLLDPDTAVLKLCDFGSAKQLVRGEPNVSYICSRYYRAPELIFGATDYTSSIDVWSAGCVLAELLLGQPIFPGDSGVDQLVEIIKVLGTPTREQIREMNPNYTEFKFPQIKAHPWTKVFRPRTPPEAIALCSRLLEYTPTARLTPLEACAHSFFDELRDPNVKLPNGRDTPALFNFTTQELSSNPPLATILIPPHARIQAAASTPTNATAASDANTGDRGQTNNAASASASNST

With `C=CC(=O)Nc1ccc(OC)c(Nc2cc(-c3[nH]c(CC)nc3-c3cccc(NC(=O)c4cccc5c4NC(=O)c4ccccc4N5)c3)ccn2)c1` [Compound 4] the POC (AKT3) was 100% of control, the Ki [1] was 1200 ± 40 nM and the kinact [1] was 0.003 s⁻¹. For the same compound, the kinact/KI [1] was 2500 ± 30 M⁻¹ s⁻¹, the Ki [2] was 610 ± 30 nM and the kinact [2] was 0.00867 s⁻¹. For the same compound, the kinact/KI [2] was 14100 ± 300 M⁻¹ s⁻¹, the POC (CSNK1G2) was 91% of control and the POC (CSNK1G1) was 93% of control. The POC (RIOK3) was 100% of control, the POC (MEK3) was 100% of control and the POC (ULK2) was 80% of control. The POC (FER) was 36% of control, the POC (CDKL5) was 98% of control and the POC (KIT(D816H)) was 39% of control. For the same compound, the POC (CSF1R) was 100% of control, the POC (PCTK3) was 93% of control and the POC (EPHA4) was 95% of control. For the same compound, the POC (MRCKB) was 1.7% of control, the POC (LIMK1) was 79% of control and the POC (GRK3) was 100% of control. For the same compound, the POC (EGFR(L747-T751del+Sins)) was 7.6% of control, the POC (MARK1) was 92% of control and the POC (GSK3B) was 100% of control. The POC (TAOK2) was 100% of control, the POC (MUSK) was 100% of control and the POC (NEK9) was 83% of control. For the same compound, the POC (NDR1) was 73% of control, the POC (CDK9) was 100% of control and the POC (TIE2) was 71% of control. For the same compound, the POC (TAOK3) was 95% of control, the POC (LRRK2) was 93% of control and the POC (DYRK2) was 75% of control. For the same compound, the POC (CDK8) was 81% of control, the POC (EPHA8) was 98% of control and the POC (MEK2) was 100% of control. The POC (FGR) was 19% of control.
